According to patent US10149839B2, “Chemical compounds” (AstraZeneca AB, priority 2016, dated 2018):
pIC50: −log10 of the molar value. In brackets after ≈: the same amount, converted by molar mass.

Assays:
[1] = molecular target: Estrogen Receptor (ERα) in MCF-7 cells (Homo sapiens (Human), UniProt P03372); assay: MCF-7 ER down-regulation assay (immuno-fluorescence); format: cell-based; details: for % downregulation: shown in brackets where not >90%
[2] = Thermodynamic solubility (shake flask); format: physicochemical; details: aqueous phosphate buffer, 25 °C, pH 7.4, aqueous buffer, thermodynamic from solid, aqueous phosphate buffer pH 7.4, 24 hours
[3] = Human plasma protein binding (equilibrium dialysis); format: in vitro ADME; details: dialysis 18 hours
physchem = details: 1-octanol/aqueous buffer, pH 7.4

Estrogen Receptor (ERα) in MCF-7 cells, sequence (P03372 whole entry): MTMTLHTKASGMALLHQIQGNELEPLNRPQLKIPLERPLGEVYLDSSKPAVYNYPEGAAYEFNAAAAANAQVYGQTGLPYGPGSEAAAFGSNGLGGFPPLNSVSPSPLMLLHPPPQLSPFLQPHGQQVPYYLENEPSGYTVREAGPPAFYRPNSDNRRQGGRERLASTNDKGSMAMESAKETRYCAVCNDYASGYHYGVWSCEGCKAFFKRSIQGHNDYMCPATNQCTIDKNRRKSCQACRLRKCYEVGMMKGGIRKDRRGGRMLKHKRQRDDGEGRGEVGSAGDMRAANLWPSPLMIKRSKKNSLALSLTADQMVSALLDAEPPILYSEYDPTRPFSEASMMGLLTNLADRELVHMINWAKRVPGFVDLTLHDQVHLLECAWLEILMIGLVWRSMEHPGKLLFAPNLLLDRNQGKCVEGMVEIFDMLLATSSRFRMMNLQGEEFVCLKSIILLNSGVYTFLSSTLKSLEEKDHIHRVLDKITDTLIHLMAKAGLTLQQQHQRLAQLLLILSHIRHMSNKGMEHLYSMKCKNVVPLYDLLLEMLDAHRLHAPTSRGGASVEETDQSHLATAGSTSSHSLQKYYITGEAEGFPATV

| pIC50 ([1]; 18-22 hours incubation) | % downregulation [1] | solubility at 24 h [2] [µM] | Human plasma protein binding (% free) [3] [% free] | logD (physchem) | DC50 ([1]; 18-22 hours incubation, read-out: ER down regulation IC50 value) [nM] | Structure (SMILES) |
| --- | --- | --- | --- | --- | --- | --- |
| 7.96 | (48%) | 354 (≈ 171 µg/mL) | 2.7 | 2.9 |  | C[C@H](COc1ccc([C@@H]2c3[nH]c4ccccc4c3C[C@@H](C)N2CC2(F)COC2)cc1)NCCCF [Example 28, 3-fluoro-N-((R)-1-(4-((1R,3R)-2-((3-fluorooxetan-3-yl)methyl)-3-methyl-2,3,4,9-tetrahydro-1H-pyrido[3,4-b]indol-1-yl)phenoxy)propan-2-yl)propan-1-amine] |
| 7.66 | (89%) | 554 (≈ 252 µg/mL) | 5.3 | 2.7 |  | C[C@@H]1Cc2c([nH]c3ccccc23)[C@@H](c2ccc(OCCNCCCF)cn2)N1CC1(F)CC1 [Example 31, 3-fluoro-N-(2-((6-((1S,3R)-2-((1-fluorocyclopropyl)methyl)-3-methyl-2,3,4,9-tetrahydro-1H-pyrido[3,4-b]indol-1-yl)pyridin-3-yl)oxy)ethyl)propan-1-amine] |
| 7.39 |  | 980 (≈ 461 µg/mL) | 16 | 2.1 |  | C[C@@H]1Cc2c([nH]c3ccccc23)[C@@H](c2ccc(OCCNCCCF)cn2)N1CC1(F)COC1 [Example 32, 3-fluoro-N-(2-((6-((1S,3R)-2-((3-fluorooxetan-3-yl)methyl)-3-methyl-2,3,4,9-tetrahydro-1H-pyrido[3,4-b]indol-1-yl)pyridin-3-yl)oxy)ethyl)propan-1-amine] |
| 8.48 | (87%) | 244 (≈ 111 µg/mL) | 3.0 | 3 |  | C[C@@H]1Cc2c([nH]c3ccccc23)[C@@H](c2ccc(OCCNCCCF)nc2)N1CC1(F)CC1 [Example 33, 3-fluoro-N-(2-((5-((1R,3R)-2-((1-fluorocyclopropyl)methyl)-3-methyl-2,3,4,9-tetrahydro-1H-pyrido[3,4-b]indol-1-yl)pyridin-2-yl)oxy)ethyl)propan-1-amine] |
| 8.21 |  | 787 (≈ 370 µg/mL) | 11 | 2.5 |  | C[C@@H]1Cc2c([nH]c3ccccc23)[C@@H](c2ccc(OCCNCCCF)nc2)N1CC1(F)COC1 [Example 34, 3-fluoro-N-(2-((5-((1R,3R)-2-((3-fluorooxetan-3-yl)methyl)-3-methyl-2,3,4,9-tetrahydro-1H-pyrido[3,4-b]indol-1-yl)pyridin-2-yl)oxy)ethyl)propan-1-amine] |
| 9.29 |  | 877 (≈ 425 µg/mL) | 8.5 | 2.4 |  | COc1cc(OCCNCCCF)ncc1[C@@H]1c2[nH]c3ccccc3c2C[C@@H](C)N1CC1(F)CC1 [Example 37, 3-fluoro-N-(2-((5-((1R,3R)-2-((1-fluorocyclopropyl)methyl)-3-methyl-2,3,4,9-tetrahydro-1H-pyrido[3,4-b]indol-1-yl)-4-methoxypyridin-2-yl)oxy)ethyl)propan-1-amine] |
| 6.64 |  | 328 (≈ 150 µg/mL) | 7.2 | 2.5 |  | C[C@@H]1Cc2c([nH]c3ccccc23)[C@@H](c2ncc(OCCNCCCF)cn2)N1CC(C)(C)F [Example 39, 3-fluoro-N-(2-((2-((1S,3R)-2-(2-fluoro-2-methylpropyl)-3-methyl-2,3,4,9-tetrahydro-1H-pyrido[3,4-b]indol-1-yl)pyrimidin-5-yl)oxy)ethyl)propan-1-amine] |
| 9.57 |  | 35 (≈ 16.1 µg/mL) | 0.41 | 4 |  | C[C@@H]1Cc2c([nH]c3ccccc23)[C@@H](c2ccc(OCCNCCCF)cc2)N1CC(C)(F)F [Example 57, N-(2-(4-((1R,3R)-2-(2,2-difluoropropyl)-3-methyl-2,3,4,9-tetrahydro-1H-pyrido[3,4-b]indol-1-yl)phenoxy)ethyl)-3-fluoropropan-1-amine] |
| 9.60 |  | 853 (≈ 430 µg/mL) | 2.8 | 2.9 |  | COc1cc(NCCNCCCF)ccc1[C@@H]1c2[nH]c3ccccc3c2C[C@@H](C)N1CC(F)(F)CO [Example 59, 2,2-difluoro-3-((1R,3R)-1-(4-((2-((3-fluoropropyl)amino)ethyl)amino)-2-methoxyphenyl)-3-methyl-1,3,4,9-tetrahydro-2H-pyrido[3,4-b]indol-2-yl)propan-1-ol] |
| 8.74 |  | 760 (≈ 367 µg/mL) | 7.8 | 2.9 |  | COc1cc(NCCNCCCF)ccc1[C@@H]1c2[nH]c3ccccc3c2C[C@@H](C)N1CC1(F)CC1 [Example 60, N1-(4-((1R,3R)-2-((1-fluorocyclopropyl)methyl)-3-methyl-2,3,4,9-tetrahydro-1H-pyrido[3,4-b]indol-1-yl)-3-methoxyphenyl)-N2-(3-fluoropropyl)ethane-1,2-diamine] |
| 9.62 |  | 24 (≈ 11.4 µg/mL) | 1.3 | 3.4 |  | COc1cc(NCCNCCCF)ccc1[C@@H]1c2[nH]c3ccccc3c2C[C@@H](C)N1CC(F)F [Example 61, N1-(4-((1R,3R)-2-(2,2-difluoroethyl)-3-methyl-2,3,4,9-tetrahydro-1H-pyrido[3,4-b]indol-1-yl)-3-methoxyphenyl)-N2-(3-fluoropropyl)ethane-1,2-diamine] |
|  |  | 587 (≈ 287 µg/mL) | 13 | 2.7 | 3.9 | C[C@@H]1Cc2c([nH]c3ccccc23)[C@@H](c2cnc(OCCNCCCF)cc2F)N1CC1(F)COC1 [Example 62, 3-fluoro-N-(2-((4-fluoro-5-((1R,3R)-2-((3-fluorooxetan-3-yl)methyl)-3-methyl-2,3,4,9-tetrahydro-1H-pyrido[3,4-b]indol-1-yl)pyridin-2-yl)oxy)ethyl)propan-1-amine] |
| 8.74 |  | 268 (≈ 123 µg/mL) | 1.4 | > 3.6 |  | Cc1cc(OCCNCCCF)ncc1[C@@H]1c2[nH]c3ccccc3c2C[C@@H](C)N1CC(F)F [Example 63, N-(2-((5-((1R,3R)-2-(2,2-difluoroethyl)-3-methyl-2,3,4,9-tetrahydro-1H-pyrido[3,4-b]indol-1-yl)-4-methylpyridin-2-yl)oxy)ethyl)-3-fluoropropan-1-amine] |
| 9.00 |  | > 1000 | 20 | 2 |  | COc1cc(NCCNCCCF)ncc1[C@@H]1c2[nH]c3ccccc3c2C[C@@H](C)N1CC1(F)COC1 [Example 66, N1-(5-((1R,3R)-2-((3-fluorooxetan-3-yl)methyl)-3-methyl-2,3,4,9-tetrahydro-1H-pyrido[3,4-b]indol-1-yl)-4-methoxypyridin-2-yl)-N2-(3-fluoropropyl)ethane-1,2-diamine] |
| 9.27 |  | 820 (≈ 392 µg/mL) | 15 | 2 |  | C[C@@H]1Cc2c([nH]c3ccccc23)[C@@H](c2cnc(OCCNCCCF)cn2)N1CC(F)(F)CO [Example 69, 2,2-difluoro-3-((1S,3R)-1-(5-(2-((3-fluoropropyl)amino)ethoxy)pyrazin-2-yl)-3-methyl-1,3,4,9-tetrahydro-2H-pyrido[3,4-b]indol-2-yl)propan-1-ol] |
| 9.06 |  | 607 (≈ 272 µg/mL) | 11 | 2.4 |  | C[C@@H]1Cc2c([nH]c3ccccc23)[C@@H](c2cnc(OCCNCCCF)cn2)N1CC(F)F [Example 70, N-(2-((5-((1S,3R)-2-(2,2-difluoroethyl)-3-methyl-2,3,4,9-tetrahydro-1H-pyrido[3,4-b]indol-1-yl)pyrazin-2-yl)oxy)ethyl)-3-fluoropropan-1-amine] |
| 9.08 |  | > 1000 | 13 | 2.3 |  | C[C@@H]1Cc2c([nH]c3ccccc23)[C@@H](c2cnc(NCCNCCCF)cn2)N1CC(F)F [Example 71, N1-(5-((1S,3R)-2-(2,2-difluoroethyl)-3-methyl-2,3,4,9-tetrahydro-1H-pyrido[3,4-b]indol-1-yl)pyrazin-2-yl)-N2-(3-fluoropropyl)ethane-1,2-diamine] |
| 10.03 |  | 51 (≈ 25.2 µg/mL) | 0.66 | > 3.2 |  | COc1cc(OCCNCCCF)ccc1[C@@H]1c2[nH]c3ccccc3c2C[C@@H](C)N1CC(F)(F)F [Example 73, 3-fluoro-N-(2-(3-methoxy-4-((1R,3R)-3-methyl-2-(2,2,2-trifluoroethyl)-2,3,4,9-tetrahydro-1H-pyrido[3,4-b]indol-1-yl)phenoxy)ethyl)propan-1-amine] |
| 9.85 |  | 30 (≈ 14.7 µg/mL) | 0.33 | 3.9 |  | COc1cc(OCCNCCCF)ccc1[C@@H]1c2[nH]c3ccccc3c2C[C@@H](C)N1CC(C)(F)F [Example 74, N-(2-(4-((1R,3R)-2-(2,2-difluoropropyl)-3-methyl-2,3,4,9-tetrahydro-1H-pyrido[3,4-b]indol-1-yl)-3-methoxyphenoxy)ethyl)-3-fluoropropan-1-amine] |
| 9.15 | (85%) | 108 (≈ 53 µg/mL) | 0.19 | > 3.6 |  | COc1nc(OCCNCCCF)ccc1[C@@H]1c2[nH]c3ccccc3c2C[C@@H](C)N1CC(C)(F)F [Example 77, N-(2-((5-((1R,3R)-2-(2,2-difluoropropyl)-3-methyl-2,3,4,9-tetrahydro-1H-pyrido[3,4-b]indol-1-yl)-6-methoxypyridin-2-yl)oxy)ethyl)-3-fluoropropan-1-amine] |
